The record followed here is patent publication US10517889B2, “Modulators of SMAD7 expression” (Ionis Pharmaceuticals, Inc., priority 2017, dated 2019).

This series has as its system human SMAD7 mRNA. The series is described as follows: Antisense inhibition of human SMAD7 mRNA expression in Hep3B cells by 5-10-5 MOE gapmers, single concentration, electroporation, RT-PCR (Example 1, Study 1 and 2). In kind it is cell-based. As to conditions: for % Inhibition of SMAD7 mRNA: electroporation with 15,000 nM antisense oligonucleotide (Study 2). A digest of the protocol:
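Readout is percent SMAD7 mRNA inhibition versus untreated cells, measured by qRT-PCR (RTS5062) and corrected for total RNA by RIBOGREEN. Oligonucleotide, 5,000 nM or 15,000 nM, was delivered by electroporation into Hep3B cells at 20,000 per well. RNA was collected about 24 h later.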

Setting [1] is: Study 2, electroporation with 15,000 nM antisense oligonucleotide, 5-10-5 MOE gapmers targeting SEQ ID NO: 1 and 2.
Where [2] appears, read: electroporation, 15,000 nM, approximately 24 hours, relative to untreated control cells, gapmers targeting SEQ ID NO: 1 and 2.
Setting [3] is: electroporation, 15,000 nM, approximately 24 hours, gapmers targeting SEQ ID NO: 3 and 4.
Setting [4] is: electroporation, 15,000 nM antisense oligonucleotide (Study 2), 5-10-5 MOE gapmers targeting SEQ ID NO: 1 and 2.
Where [5] appears, read: 5-10-5 MOE gapmers targeting SEQ ID NO: 1 and 2.

Strand notation (5' to 3'): a small letter for the sugar, then the base; units joined by * are phosphorothioate-linked, units joined directly phosphodiester-linked; [ ] holds rarer units or linkages, { } end groups; capitals alone tell only the bases. e = 2'-O-(2-methoxyethyl) (MOE); [5mC] = 5-methylcytosine; d = 2'-deoxy (DNA)

On to “771359 (antisense eG*eT*e[5mC]*eA*e[5mC]*d[5mC]*d[5mC]*dG*dT*d[5mC]*dT*dG*dG*dG*d[5mC]*eT*e[5mC]*e[5mC]*eG*eG) [compound 771359]”, for which the “% Inhibition” value under setting [1] came to 15%.
Regarding “771775 (antisense eA*eA*eT*eG*e[5mC]*d[5mC]*dA*dA*dA*dT*dG*d[5mC]*d[5mC]*d[5mC]*dA*eA*eA*eA*e[5mC]*eT) [compound 771775]”, the “% Inhibition” value under setting [1] was 41%.
For the substance “771438 (e[5mC]*e[5mC]*eA*e[5mC]*eG*dG*d[5mC]*d[5mC]*dT*dG*dG*dA*dG*d[5mC]*dA*eG*e[5mC]*eA*eG*e[5mC]; antisense) [compound 771438]”, the “% inhibition of SMAD7 mRNA expression” value under setting [2] is 26%.
On to “771895 (antisense eA*eT*eT*eT*eG*d[5mC]*dA*dA*d[5mC]*dA*dA*dT*dA*dA*dA*eA*e[5mC]*eA*eA*eA) [compound 771895]”, for which the “% Inhibition” value under setting [1] is recorded as 0%.
“771812 (antisense eT*eT*eA*eA*e[5mC]*d[5mC]*d[5mC]*d[5mC]*dT*dG*d[5mC]*d[5mC]*dG*dG*dA*e[5mC]*eT*eG*e[5mC]*e[5mC]) [compound 771812]”: the “% Inhibition” value under setting [1] came to 26%.
As for “771342 (antisense eT*e[5mC]*eA*eG*eT*dT*dG*dG*dT*dT*dT*dG*dA*dG*dA*eA*eA*eA*eT*e[5mC]) [compound 771342]”, the “% inhibition of SMAD7 mRNA expression” value under setting [3] was 35%.
Regarding “771761 (antisense e[5mC]*e[5mC]*e[5mC]*e[5mC]*eA*dT*dT*d[5mC]*d[5mC]*dT*d[5mC]*d[5mC]*dA*dG*dT*e[5mC]*eT*eT*eT*eA) [compound 771761]”, the “% inhibition of SMAD7 mRNA expression” value under setting [4] turned out to be 33%.
For “771372 (antisense eA*e[5mC]*eA*eA*eA*d[5mC]*d[5mC]*dA*d[5mC]*dA*d[5mC]*dA*dT*dT*d[5mC]*e[5mC]*eA*eA*eA*eA) [compound 771372]”, the “% inhibition of SMAD7 mRNA expression” value under setting [4] is given as 37%.
In the case of “771408 (antisense eT*eG*e[5mC]*eT*eA*dA*dG*dG*dA*dG*d[5mC]*dG*dA*dA*d[5mC]*eA*eT*eG*eA*e[5mC]) [compound 771408]”, the “% Inhibition” value under setting [1] was determined as 36%.
Consider “771615 (antisense eA*eG*e[5mC]*eT*eG*dG*dT*dT*dT*dT*d[5mC]*dT*dA*dA*dG*eT*e[5mC]*e[5mC]*eG*eG) [compound 771615]”, for which the “% inhibition of SMAD7 mRNA expression” value under setting [1] was determined as 45%.
In the case of “771606 (antisense eG*eG*eG*e[5mC]*eT*dG*d[5mC]*d[5mC]*d[5mC]*d[5mC]*dG*dG*d[5mC]*dA*dG*e[5mC]*e[5mC]*e[5mC]*eT*eT) [compound 771606]”, the “% inhibition of SMAD7 mRNA expression” value under setting [1] was found to be 0%.
As to “771577 (antisense eT*eG*e[5mC]*e[5mC]*eT*d[5mC]*dT*dG*d[5mC]*d[5mC]*d[5mC]*d[5mC]*dA*d[5mC]*dT*eG*eA*eG*e[5mC]*eG) [compound 771577]”, the “% inhibition of SMAD7 mRNA expression” value under setting [4] was 21%.
Turning to “771601 (antisense eG*eA*eT*eG*eG*d[5mC]*d[5mC]*dA*dA*dA*dA*dA*dA*dG*dA*eA*eA*eG*eA*e[5mC]) [compound 771601]”, the “% inhibition of SMAD7 mRNA expression” value under setting [4] is recorded as 13%.
On to “771613 (antisense e[5mC]*eT*eA*eA*eG*dT*d[5mC]*d[5mC]*dG*dG*dG*dA*dA*dA*dA*eA*e[5mC]*e[5mC]*eT*eG) [compound 771613]”, for which, under setting [2], the “% inhibition of SMAD7 mRNA expression” value was 21%.
“771805 (antisense eG*eA*eT*eT*eA*dT*dA*dT*dA*dG*dG*dT*dA*dT*dT*eT*eT*eT*eG*eA) [compound 771805]”: the “% inhibition of SMAD7 mRNA expression” value under setting [2] turned out to be 0%.
As for “771930 (antisense e[5mC]*e[5mC]*eA*eG*e[5mC]*d[5mC]*d[5mC]*dA*dG*dA*dA*dA*dA*dA*d[5mC]*eT*eG*e[5mC]*eA*eA) [compound 771930]”, the “% inhibition of SMAD7 mRNA expression” value under setting [4] is recorded as 26%.
In the case of “771908 (antisense e[5mC]*eA*eA*eA*e[5mC]*dA*dT*d[5mC]*dA*d[5mC]*d[5mC]*dA*d[5mC]*dG*d[5mC]*e[5mC]*eT*e[5mC]*eG*e[5mC]) [compound 771908]”, the “% Inhibition” value under setting [1] is 26%.
In the case of “771343 (antisense eG*eA*e[5mC]*eA*eG*dT*d[5mC]*dA*dG*dT*dT*dG*dG*dT*dT*eT*eG*eA*eG*eA) [compound 771343]”, the “% inhibition of SMAD7 mRNA expression” value under setting [3] is 0%.
“771873 (antisense eA*eG*e[5mC]*eT*eG*d[5mC]*dT*dG*dT*d[5mC]*dA*d[5mC]*dA*dA*dG*eG*e[5mC]*e[5mC]*e[5mC]*eT) [compound 771873]”: the “% inhibition of SMAD7 mRNA expression” value under setting [4] was determined as 31%.
As for “771952 (antisense eT*e[5mC]*eT*eT*e[5mC]*dT*d[5mC]*dT*dG*d[5mC]*dA*dG*dA*dG*d[5mC]*eA*e[5mC]*eA*eG*eA) [compound 771952]”, the “% Inhibition of SMAD7 mRNA” value under setting [5] came out at 26%. The “% inhibition of SMAD7 mRNA expression” value under setting [4] is listed as 0%.
As to “771756 (antisense e[5mC]*e[5mC]*eA*eG*eG*d[5mC]*dA*dA*d[5mC]*d[5mC]*d[5mC]*d[5mC]*dA*dG*dA*e[5mC]*e[5mC]*eT*eG*e[5mC]) [compound 771756]”, the “% Inhibition” value under setting [1] was found to be 11%.
For the substance “771677 (antisense eT*eT*eT*e[5mC]*eT*dT*dG*dT*dT*dT*dA*dT*dA*d[5mC]*dA*e[5mC]*eA*eT*eT*eG) [compound 771677]”, the “% inhibition of SMAD7 mRNA expression” value under setting [2] is 21%.
Turning to “771465 (antisense eA*eT*e[5mC]*e[5mC]*eA*dG*dA*dG*dA*dG*dG*dG*d[5mC]*dT*d[5mC]*e[5mC]*eT*eG*eG*eA) [compound 771465]”, the “% Inhibition of SMAD7 mRNA” value under setting [5] was determined as 16%. Besides, under setting [4], the “% inhibition of SMAD7 mRNA expression” value turned out to be 0%.
With “771629 (antisense eA*eG*e[5mC]*eA*eT*dG*dT*d[5mC]*d[5mC]*d[5mC]*dT*d[5mC]*d[5mC]*d[5mC]*dA*eG*eG*eG*eA*e[5mC]) [compound 771629]”, the “% inhibition of SMAD7 mRNA expression” value under setting [2] is listed as 25%.
For the substance “771859 (antisense e[5mC]*e[5mC]*eA*eG*eA*dA*dA*dA*dT*dG*d[5mC]*dA*dG*dA*d[5mC]*eA*eG*e[5mC]*eT*eA) [compound 771859]”, the “% Inhibition” value under setting [1] turned out to be 42%. For the same substance, the “% inhibition of SMAD7 mRNA expression” value (electroporation, 5,000 nM, approximately 24 hours, relative to untreated control cells, gapmers targeting SEQ ID NO: 1 and 2) is 43%.
As for “771471 (antisense eG*e[5mC]*eT*e[5mC]*e[5mC]*dG*d[5mC]*dA*d[5mC]*d[5mC]*dT*dT*d[5mC]*dT*dG*e[5mC]*eA*e[5mC]*e[5mC]*eA) [compound 771471]”, the “% inhibition of SMAD7 mRNA expression” value under setting [1] turned out to be 43%.
Turning to “771447 (eA*eA*e[5mC]*eA*e[5mC]*dA*dG*d[5mC]*d[5mC]*dT*d[5mC]*dT*dT*dG*dA*e[5mC]*eT*eT*e[5mC]*e[5mC]; antisense) [compound 771447]”, the “% Inhibition” value under setting [1] came out at 19%.
In the case of “771654 (antisense eA*eA*eA*e[5mC]*eA*dT*dG*d[5mC]*dT*d[5mC]*dA*dT*dT*dG*dA*eG*e[5mC]*eT*eA*eA) [compound 771654]”, the “% inhibition of SMAD7 mRNA expression” value under setting [1] came out at 32%.
For “771877 (antisense eT*eG*e[5mC]*eA*eG*dG*dA*dT*d[5mC]*d[5mC]*dG*dA*dT*dG*dG*eA*eA*eA*eA*eG) [compound 771877]”, the “% inhibition of SMAD7 mRNA expression” value under setting [2] is listed as 24%.
As to “771534 (antisense eA*eA*e[5mC]*eA*eG*dA*dA*d[5mC]*dA*d[5mC]*dA*dA*dA*d[5mC]*dG*eA*eG*eG*eA*e[5mC]) [compound 771534]”, the “% inhibition of SMAD7 mRNA expression” value under setting [1] was 0%.
For “771417 (eA*e[5mC]*e[5mC]*eG*eG*d[5mC]*d[5mC]*d[5mC]*d[5mC]*dA*dT*dG*d[5mC]*dG*d[5mC]*eT*e[5mC]*eG*eG*e[5mC]; antisense) [compound 771417]”, the “% Inhibition of SMAD7 mRNA” value under setting [5] was 24%. Moreover, the “% inhibition of SMAD7 mRNA expression” value under setting [4] was 16%.

Usually % Inhibition stands for the drop in the measured response relative to a control, in per cent.
